Experimental data as given in patent US8409581B2, “Compounds for treating amyloidoses” (Affiris AG, priority 2008, dated 2013).

Key:
[1] = test system: monoclonal antibody MV-002; assay: In vitro binding assay (ELISA) of mimotopes to parental antibody; parameters: species or system mice; settings: peptide coupled to BSA bound to ELISA plates (1 μM); parental antibody MV-002
Procedure: 1. In Vitro Binding Assay (ELISA)
Peptides derived from Phage Display as well as variants thereof were coupled to BSA and bound to ELISA plates (1 μM; as indicated in the respective figures) and subsequently incubated with the monoclonal antibody that was used for the screening procedure to analyse binding capacity of identified peptides.

[2] = test system: monoclonal antibody MV-002 binding to the original epitope; assay: In vitro inhibition assay (ELISA); parameters: species or system mice; settings: for inhibition in in vitro inhibition/competition assay: MV-002, original epitope coated on ELISA plates; for Inhibition Capacity (competition code): OD at 5 ug peptide compared to original peptide, MV-002
Procedure: 2. In Vitro Inhibition Assay (ELISA)
Different amounts of peptides (concentrations ranging from 5 μg to 0.03 μg; serial dilutions), derived from Phage Display were incubated with the monoclonal antibody that was used for the screening procedure. Peptides diminishing subsequent binding of the antibody to the original epitope coated on ELISA plates were considered as inhibiting in this assay.

[3] = test system: injected peptide; assay: Mimotope vaccination of mice, serum titer ELISA against injected peptide; assay type: in vivo, C57/B16 mice; settings: 30 μg peptide-KLH, alum, s.c., FIG. 4
Procedure: (§1) Inhibiting as well as non-inhibiting peptides were coupled to KLH and injected into mice (wildtype C57/B16 mice; subcutaneous injection into the flank) together with an appropriate adjuvant (aluminium hydroxide). Animals were vaccinated 3-6 times in biweekly intervals and sera were taken biweekly as well. Titers to injected peptides, as well as to an irrelevant peptide were determined with every serum. Furthermore, titers against the recombinant human Aβ protein, and against original peptides were determined respectively. In general sera were analysed by reaction against peptides coupled to Bovine Serum Albumin (BSA) and recombinant full length proteins which were immobilised on ELISA plates. Titers were determined using anti mouse IgG specific antibodies. For detailed results see FIGS. 4, 5 and 6 respectively.
(§2) Female C57/b16 mice, 5-6 mice per group, were subcutaneously immunized with 30 μg peptide coupled to KLH. Control groups were administered original epitope-KLH conjugates respectively. As adjuvant alum was used (always 1 mg per mouse). […] The in vitro ELISA assay to determine the antibody titer was performed with sera of single mice after each vaccination in a two week interval (see FIGS. 6 and 7 respectively). Titers were calculated as OD max/2 in all figures shown. The wells of the ELISA plate were coated with mimotope-BSA conjugate and an irrelevant peptide-BSA conjugate (negative control). The positive control was performed by reaction of the parental antibody with the respective mimotope-BSA conjugate. The detection was performed with anti-mouse IgG. Additionally, recombinant proteins were immobilised on ELISA plates and sera reacted accordingly. FIGS. 4, 5 and 6 show representative examples for assays used to characterise mimotopes in vivo.

[4] = test system: p1454 (unrelated sequence); assay: Mimotope vaccination of mice, serum titer ELISA against irrelevant peptide; assay type: in vivo, C57/B16 mice; settings: 30 μg peptide-KLH, alum, s.c., FIG. 4
Procedure: as §1, §2

[5] = test system: original epitope p4377; assay: Mimotope vaccination of mice, serum titer ELISA against original epitope; assay type: in vivo, C57/B16 mice; settings: 30 μg peptide-KLH, alum, s.c., FIG. 5
Procedure: as §1, §2

[6] = test system: amyloid plaques (Aβ40/42) in brain; assay: Area occupied by amyloid plaques in Tg2576 AD mouse model; assay type: in vivo; settings: Tg2576 mice

Sequence	Binding Capacity (binding code; OD halfmax 1:X, dilution factor of the parental AB) [1]	inhibition in in vitro inhibition/competition assay [2]	Inhibition Capacity (competition code) [2]	immune response against injected peptide [3]	unspecific immune response against unrelated sequence (p1454) [4]	immune response against the original epitope p4377 [5]	reduction of area occupied by amyloid plaques following mimotope treatment ([6]; group 2 versus PBS-ALUM control) [%]	average area occupied by amyloid plaques ([6]; peptide-KLH conjugate adsorbed to ALUM, s.c. 6 times at monthly intervals, mAb 3A5 staining, control 0.35%) [%]
HQKMIFAC [p4675, MV-002 mimotope peptide; used as KLH conjugate vaccine in Tg2576 mice]	3 (strong binding :>320000)	active in in vitro inhibition assays	2 (strong inhibition (as original epitope; OD of peptide below 2, 3 times of original peptide))	elicited immune responses	failed to induce a relevant unspecific immune response	mounted detectable immune responses	31	0.24
HMRLFFNC [p4670, MV-002 mimotope peptide]	3 (strong binding :>320000)	active in in vitro inhibition assays	1 (Weaker than original epitope (OD of peptide below 4, 6 times of original peptide))	elicited immune responses	failed to induce a relevant unspecific immune response	mounted detectable immune responses	–	–
GEIYFERC [p4681, MV-002 mimotope peptide]	3 (strong binding :>320000)	active in in vitro inhibition assays	2 (strong inhibition (as original epitope; OD of peptide below 2, 3 times of original peptide))	elicited immune responses	failed to induce a relevant unspecific immune response	mounted detectable immune responses	–	–
